Results as given in patent US7018801B2, “Selection of peptides with antibody-like properties” (Board of Regents, The University of Texas System, priority 2000, dated 2006).
pKd: −log10 of the molar value. Peptide text beside a SMILES is read from it.

Columns and labels:
[1] = molecular target: ICS (pro-IL-1β-derived epitope, 14 mer) (Homo sapiens, UniProt P01584, A117G); assay: Measured KD of the LEPB-ICS complex; format: binding
From the text: Finally, the most rigorous tests for peptide-peptide interaction involve spectroscopic assays. These experiments provide quantitative data regarding the affinity of the LEP for the epitope target. For example, fluorescence polarization (Heyduk et al., 1996) can be employed. In this experiment, one of the peptides is synthesized with a covalently coupled fluorescein molecule. A low concentration of this species (usually 10^−8 M to 10^−10 M) is titrated with increasing amounts of a fusion protein containing the partner peptide. The increase in the polarization of the fluorescence as a result of binding of the low molecular weight fluorescein-peptide conjugate to the high molecular weight fusion protein is monitored.
The affinities of the isolated peptides for their epitope targets can be determined by a number of methods. These include fusion of one or both of the interacting peptides to heterologous proteins, followed by the binding of one of the fusions to an affinity resin. The affinity of the partner fusion protein for this resin is then determined. Another common technique is surface plasmon resonance, in which one of the interacting peptides or fusion proteins is immobilized on an appropriately modified gold surface, and the on and off rates of the partner peptide are measured using the commercially available BIAcore instrument or an equivalent. […]

[2] = molecular target: T1, GST fusion protein containing the target epitope (Homo sapiens, UniProt P01584, A117G); assay: Far Western blot of DBD-LEP fusions probed with GST-epitope fusion protein; format: binding; details: extract of phage-resistant cells expressing DBD-LEP fusion; anti-GST antibody detection
T1 construct: made in house
Procedure: FIG. 5—“Far Western” blot protocol to eliminate false positives. An extract is prepared from phage-resistant cells that express the DBD-LEP fusion. This is electrophoresed through a denaturing gel, then blotted onto a membrane. This is probed with a GST fusion protein containing the target epitope, followed by labeled anti-GST antibody to visualize the site(s) of binding of the GST-peptide fusion protein.
The putative epitope-binding LEPs that survive the tests described above are then tested biochemically for epitope binding. […] This is done by expressing a GST fusion protein containing the target peptide at the C-terminus. This protein is then employed as a probe in a Far-Western blot experiment (FIG. 5). Crude extracts from cells that express the Repressor DBD-LEP fusion are electrophoresed through a denaturing gel and blotted onto a suitable surface, such a nitrocellulose. The blot is then probed with the GST-epitope fusion protein, followed by anti-GST antibody and finally an HRP-conjugated secondary to visualize the binding events. Lanes in which the band corresponding to the Repressor DBD-LEP is bound by the GST-epitope fusion protein are considered true hits.

Row | Compound | pKd [1] | Far Western blot signal [2]
1 | CC(C)C[C@H](NC(=O)[C@H](CCC(=O)O)NC(=O)[C@H](C)NC(=O)[C@H](CCC(=O)O)NC(=O)[C@H](CCCCN)NC(=O)[C@H](CCCNC(=N)N)NC(=O)[C@H](C)NC(=O)[C@@H](N)CCCCN)C(=O)N[C@@H](C)C(=O)N[C@@H](C)C(=O)N[C@@H](C)C(=O)N[C@H](C(=O)N[C@@H](C)C(=O)N[C@@H](CCC(=O)O)C(=O)N[C@@H](CCC(N)=O)C(=O)O)[C@@H](C)O [LEPB] (H-KARKEAELAAATAEQ-OH) | 5.70 | 
2 | PCHLNCSLQTLSPTRTTPRKHCKHCFKTLSEKMKWN [LEPD] |  | weak or unobservable signals
